Where two headings read alike, the source gives them in different places.

For the assay, the target named is T1, xlσ1R E169A (Xenopus laevis, UniProt Q6DCU6, E169A).
T1 construct: hemagglutinin signal peptide (N); made in house; host or cells: Pichia pastoris GS115
T1 sequence (Q6DCU6 1-221 E169A): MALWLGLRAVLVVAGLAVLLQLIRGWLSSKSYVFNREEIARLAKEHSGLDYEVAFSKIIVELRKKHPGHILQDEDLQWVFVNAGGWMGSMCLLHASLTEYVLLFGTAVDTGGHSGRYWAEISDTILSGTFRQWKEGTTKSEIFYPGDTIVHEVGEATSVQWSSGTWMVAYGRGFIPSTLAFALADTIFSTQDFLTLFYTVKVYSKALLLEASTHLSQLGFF
Description: Microscale thermophoresis (MST) binding to xlσ1R E169A mutant.

With `CC(=O)[C@H]1CC[C@H]2[C@@H]3CCC4=CC(=O)CC[C@]4(C)[C@H]3CC[C@]12C` [progesterone], the Kd (usually the free concentration of one partner at which half of the binding sites on the other are occupied at equilibrium, for simple one-to-one binding) by setting is: (MST, xlσ1R E169A, N = 3, mean (± SD), read-out: Kd (mean)) 980 ± 180 nM; (Source Data sheet Supplementary Table 3, E169A, mean of 3, read-out: Kd Mean) 990 nM; (Source Data sheet Supplementary Table 3, E169A, repeat 1, read-out: Kd Repeat 1) 920 nM; (Source Data sheet Supplementary Table 3, E169A, repeat 2, read-out: Kd Repeat 2) 1190 nM; (Source Data sheet Supplementary Table 3, E169A, repeat 3, read-out: Kd Repeat 3) 850 nM.

These data come from paper PMC11224282, “Insight into binding of endogenous neurosteroid ligands to the sigma-1 receptor” (Nature Communications, 2024).
